The text below walks through data of US10723744B2, “Transplantation therapies” (Aphios Corporation, priority 2007, dated 2020).

In series [1] the test system is HMECs. The series can be described thus: LTB4 induced neutrophil migration across HMEC monolayers (transwell, MPO assay). The series is classed as cell-based, human. Particulars: 100 nM LTB4. Here is the method: (§1) At confluency HMECs were treated for 1 h at 37° C. with Bryostatin-1 (10 nM, 100 nM) in MCDB-131 media or MCDB-131 media alone. Inserts were washed three times with Hank's Balanced Salt Solution (HBSS) (to eliminate drug effects on the neutrophils) and placed in a new plate containing either 500 μL 100 nM LTB4, or HBSS alone for control. 500 μL HBSS was then added to the top well and spiked with 500,000 neutrophils. For TNF-α experiments, HMECs were left in 20 ng/ml TNF-α in MCDB-131 for 24 h TNF-α was removed and HMECs washed three times. HMECs were treated for 1 h with Bryostatin-1 in endothelial growth medium (EGM) (10 nM, 100 nM). The drug was removed and cells were washed three times. 500 μL HBSS was added to both upper and lower chambers and spiked with 500,000 neutrophils. Neutrophils were allowed to migrate for 3 h at 37° C. Migration was stopped by removing the inserts and migration was measured using the myeloperoxidase (MPO) assay.
(§2) Neutrophil migration was measured using myeloperoxidase (MPO) analysis. Cell culture inserts were first removed and plates were spun at 1,500 RPM for 5 min. The supernatant was removed, and MPO activity was measured using TMB/peroxide as chromogen. The reaction was stopped with sulfuric acid and absorbance was read at 450 nm using a microplate reader. All experiments were performed n=6. Data was expressed as “% neutrophil migration”, which allowed cumulative statistical analysis to be done and account for unpreventable batch-to-batch variations.
(§3) Confluent HMEC monolayers were plated on 48-well plates for adhesion studies, transwells for migration studies, and pretreated with a variety of pharmacological inhibitors and activators for 1 hour. Monolayers were washed three times with HBSS to remove all drug effects on the endothelium. To initiate migration, 100 nM LTB4 was added to the lower compartment and 500,000 neutrophils were added to the upper compartment and allowed to migrate for 3 h. For adhesion assays, LTB4 was added along with 500,000 neutrophils and allowed to adhere for 1 h (time of max. adhesion as determined in FIG. 1). […] The data are shown as % change in migration and adhesion as assessed by MPO assay. All values are expressed as means±SE. Data were analyzed using a one-way ANOVA with Bonferroni corrections for multiple comparisons. Probability (p) values of <0.05 were considered significant. ***p<0.001 vs. LTB4; **p<0.01 vs. LTB4; **p<0.05 vs. LTB4; n=4 for all experiments.

The subject of series [2] is HMECs. The series is classed as cell-based, human. The procedure:
as §1, §2

In series [3] the test system is HMECs. The series can be described thus: Time course of protection against LTB4 induced PMN TEM after 1 h pretreatment, HMECs. The series is classed as cell-based, human. The conditions noted are these: 100 nM, 1 h pretreatment, washed, tested at 0, 24, 48 hours. The procedure: FIG. 6 graphically depicts protection against LTB4 induced PMN TEM with PMA up to 48 h after pretreatment. HMECs were pretreated for 1 h with PMA and washed with HBSS three times to remove PMA prior to replacement of culture medium. Neutrophil migration studies were then performed at 0, 24, or 48 hours. Migration was stimulated by adding 500,000 neutrophils to the top well and 100 nM LTB4 to the lower well at 0, 24, and 48 hours after PMA pretreatment. […] PMA (100 nM, (10^−7M) reduced LTB4 induced migration up to 48 hours after 1 h of endothelial-specific pretreatment (***p<0.001).
Referring now to FIG. 7, FIG. 7 graphically depicts protection from LTB4 induced PMN TEM with Bryostatin-1 up to 48 hours after pretreatment. HMECs were pretreated for 1 h with Bryostatin-1 and washed with HBSS three times to remove Bryostatin-1 prior to replacement of culture medium. Neutrophil migration studies were then performed at 0, 24, or 48 hours. Migration was stimulated by adding 500,000 neutrophils to the top well and 100 nM LTB4 to the lower well at 0, 24, and 48 hours after Bryostatin-1 pretreatment. […] Bryostatin-1 (100 nM) reduced LTB4 induced migration up to 48 hours after 1 hour endothelial pretreatment (***p<0.001).
(§4) At confluency, HUVECs were treated for 1 h at 37° C. with Bryostatin-1 (10 nM, 100 nM) in EGM or EGM alone. Inserts were washed three times with HBSS (to reduce drug effects on the neutrophils) and migration assays were ran at t=0, 24, or 48 h. After time elapsed, HUVECs were placed in a new plate containing either 500 μL 100 nM LTB4 or HBSS alone for control. 500 μL HBSS was then added to the top well and spiked with 500,000 neutrophils. Neutrophils were allowed to migrate for 3 h at 37° C. Migration was stopped by removing the inserts and migration was measured using the MPO assay.
as §2

For the next series, the system named is HUVECs. Nature of the series: Time course of protection against LTB4 induced PMN TEM after 1 h pretreatment, HUVECs. The series is classed as cell-based, human. Particulars: single 1 h 100 nM pretreatment. Here is the method:
as §4, §2

The subject of series [4] is PKC-ε siRNA nucleofected HUVEC. Nature of the series: LTB4 induced neutrophil migration across PKC-ε siRNA nucleofected HUVEC. The series is classed as cell-based, human. The conditions noted are these: 1 hour pretreatment. The procedure:
HUVECs were pretreated with Go-6983 (1, 10, 100 nM), or Go-6976 (1, 10, 100 nM) for 30 minutes, then spiked with 100 nM Bryostatin-1 for 1 hour. HUVECs previously nucleofected with PKC-δ, -ε, or control siRNA were just treated in Bryostatin-1 for 1 hour. HUVECs were washed three times and placed in a new plate containing either 500 μL 100 nM LTB4, or HBSS alone for control. Neutrophils were allowed to migrate for 3 h at 37° C. Migration was stopped by removing the inserts and migration was measured using the MPO assay.
as §2
Optimum nucleofection parameters were determined using nucleofection of a control vector pmaxGFP. Using fluorescence microscopy and flow cytometry, 2 μg vector/500,000 cells nucleofected yielded the highest nucleofection (data not shown). HUVECs were grown to 70% confluency, trypsinized, and then counted. […]

In a further series the test system is HMEC monolayers. Nature of the series: LTB4 induced neutrophil adhesion to the endothelial monolayer. The series is classed as cell-based, human. Particulars: data not shown. Here is the method:
as §3

A further series has as its system HMEC. The series can be described thus: Alamar blue endothelial viability assay, HMEC. The series is classed as cell-based, human. Particulars: single 1 h 100 nM treatment; time points 1, 24, 48 h. Here is the method:
(§5) The Alamar blue assay was used to determine endothelial viability after pharmacological intervention. Alamar blue contains a REDOX indicator that results in a color change upon chemical reduction by cellular metabolic activity. Endothelial cells were treated with Bryostatin-1 (100 nM) for 1 h and washed three times with HBSS. Alamar blue (10%) in media was added for 2.5 h at T=0, 24, or 48 hours after drug treatment and the ratio of absorbances (570-600 nm) was measured to determine metabolic activity.
Background: The colour change of resazurin is a common sign of viable cells or microbes.

Another series deals with HUVEC. The series can be described thus: Alamar blue endothelial viability assay, HUVEC. It counts as cell-based, human. The procedure: as §5
Series [5] concerns endothelial and epithelial cells. Particulars: several types of endothelial and epithelial cells; cited from earlier work.
For another series, the system named is endothelial cells. The conditions noted are these: greater effect seen with PKC-α inhibition; cited from earlier work.

“Also recorded” adds a separate entry of the source.

In the case of `CCCCCCCCCCCCCC(=O)O[C@@H]1[C@@H](C)[C@@]2(O)[C@@H](C=C(CO)C[C@]3(O)C(=O)C(C)=C[C@@H]23)[C@@H]2C(C)(C)[C@]12OC(C)=O` [PMA, phorbol myristate acetate], in the series on HMECs [1] (HMECs on transwells, 1 h pretreatment 100 nM or 10 nM (PMA: 100, 10 or 1 nM), 3 h), the “LTB4 induced neutrophil migration” value is recorded as “reduced LTB4 induced migration in a dose dependent manner”. For the same compound, the “LTB4 induced neutrophil migration (PMN TEM)” value in the series on HMECs [1] (HMECs, 1 h pretreatment at 1 nM) was “did not reduce PMN TEM; also recorded: had no effect on LTB4 induced migration”. Also, the “LTB4 induced neutrophil TEM” value in the series with HMECs [1] (HMECs, 1 h pretreatment, higher doses (100 nM)) is recorded as “attenuated neutrophil TEM to levels below that of basal migration”. Moreover, the “migration induced by a combination of TNF-α pretreatment and LTB4 gradient” value in the series on HMECs [2] is given as “reduced migration”. For the same compound, the “TNF-α induced neutrophil TEM (Type II migration)” value with HMECs [2] (HMECs, 24 h TNF-α 10 or 20 ng/ml, 1 hour pretreatment with 100 nM) was “attenuated Type II migration; also recorded: totally attenuated”. For the same compound, in the series with HMECs [3], the “time after pretreatment up to which LTB4 induced migration is reduced” value is recorded as “up to 48 hours”. The “time after pretreatment for which reduction in LTB4 induced migration is maintained” value with HUVECs was “up to 48 h”. For the same compound, the “LTB4 induced neutrophil migration after pretreatment, PKC-ε knocked down” value in series [4] was “did not restore LTB4 induced migration”. The “LTB4 induced adhesion to the endothelial monolayer” value in the series with HMEC monolayers is recorded as “Neither PMA, nor Bryostatin-1 reduced LTB4 induced adhesion”. For the same compound, the HMEC viability entry with HMEC is reported as “no effect”. In addition, the HUVEC viability result is “slight but significant reduction in viability” in the series on HUVEC (48 h after a single 1 h treatment with 100 nM) and “no effect” in the series on HUVEC (single 1 h 100 nM treatment, time points 1, 24, 48 h (PMA: except 48 h)). In series [5], the “trans endothelial resistance (TER)” value is listed as “decrease trans endothelial resistance (TER)”.

Take hypocrellin A: the “increased permeability caused by high glucose and PMA” value with endothelial cells is reported as “reduced this increased permeability”.
